≈ marks a conversion by molar mass, not a printed value.
How the values were obtained:
Assay type in all cases: cell-based
C. Krusei = assay: In vitro antibacterial (antifungal) test, two-fold dilution MIC; conditions: Pichia kudriavzevii, RPMI 1640, culture 2-7 days
Experimental: (§1) In vitro antibacterial experiments of 25 compounds as anti-bacterial and anti-cancer compounds in the patent were tested using 14 kinds of bacteria. Tested bacteria: C. albicans, C. tropicalis, C. neoformans, E. floccosum, M. gypseum, A. niger, S. schenekn, C. parapsilosis, C. glabrata, C. Krusei, Trichoderma, Gibberella, Setrosphaeria turcica, Fusarium Oxysporum Vasinfectum. (Bacteria were from the Dermatology Hospital of Chinese Academy of Medical Sciences, Nanjing, China.)
(§2) The Preparation of tested Bacteria solution was following: incubated Bacteria were added to 5 ml physiological saline, and then they were mashed and placed with ultrasound. The solution was fully mixed, and insoluble substances were removed. The treated solution was called the original bacterium solution. In the test, the bacteria concentration in the original bacterium solution was adjusted to […].
(§3) Tested Methods: the tested compounds were dissolved in dimethyl sulfoxide. and the solution was diluted with sterile distilled water. And the distilled solution was added to sterilized RPMI 1640 medium. The concentration of the compounds were adjusted to 256, 128, 64, 32, 16, 8, 4, 2, 1, 0.5, 0.25, 0.125 ug*ml-1. Then the adjusted solutions were inoculated with tested bacteria, and the tested systems were placed in the constant temperature oven to culture for 2-7 days. The concentration at which there was no growing of fungi was taken as the minimum inhibitory concentration (MIC).

C. parapsilosis = assay: as above; conditions: Lodderomyces parapsilosis, RPMI 1640, culture 2-7 days
Experimental: as §1, §2, §3

C. tropicalis = assay: as above; conditions: Candida tropicalis, RPMI 1640, culture 2-7 days
Experimental: as §1, §2, §3

C. albicans = assay: as above; conditions: Candida albicans, read-out: MIC C. albicas
Experimental: as §1, §2, §3

C. glabrata = assay: as above; conditions: Nakaseomyces glabratus, RPMI 1640, culture 2-7 days
Experimental: as §1, §2, §3

S. schenekn = assay: as above; conditions: RPMI 1640, culture 2-7 days
Experimental: as §1, §2, §3

C. neoformans = assay: as above; conditions: Cryptococcus neoformans, RPMI 1640, culture 2-7 days
Experimental: as §1, §2, §3

HTB-94 = assay: In vitro anticancer MTT experiment; conditions: concentration 5 ug/ml, 48 h or 72 h, read-out: inhibition ratio HTB-94
Experimental: (§4) In vitro anticancer experiments of 25 compounds as anti-bacterial and anti-cancer compounds in the patent were tested. In the test, 14 kinds of cancer cells were used as tested cancer cells. And the results obtained by MTT method were shown in table 2 (the inhibition ratio was obtained when the concentration was 5 ug/ml). Tested Cancer Cells: SGC7901, HTB-38HT-29, CRL-2233NU-398, CRL-1469PANC-1, B0192, HTB-131MDA-453, CRL-1435PC-3, FTC133, AS24391, HTB-95637. (Cancer cells were from Chinese Military Academy of Medical Sciences). Cells Culture: Culture solution was composed of RPMI 1640 medium, 10% (VAT) Fetal calf serum and 0.01% L-glutamine. Cultured cells were maintained at 37° C. in an incubator with 5% CO2. The cells at logarithmic growth phase were used in the experiment. MTT Experiment: Single cell suspension was obtained by digesting cells with 0.25% trypsin. The cells at logarithmic growth phase were collected and seeded in a 96-well plate at a concentration of 6000-7000 cells per well. After culturing for 12 h at 37° C. in the incubator with 5% CO2, the cells were again incubated with the tested compounds of various concentrations for 48 h or 72 h. Pure cultures and cells without drug were taken as blank reference and negative reference, and 8 Wells of each group were taken. Twenty microliter of MTT (5 mg/mL) was added to each well, and the mixed solutions were incubation for 4 h. The formazan product was dissolved by dimethyl sulfoxide (DMSO, 150 μL), and the optical density (O.D.) was read at 570 nm. The Inhibition Ratio was calculated by the following formula: Inhibition Ratio=(Anegative control−Asample)/(Anegative control−Ablank control)

CRL-2233SNU-398 = assay: In vitro anticancer MTT experiment; conditions: concentration 5 ug/ml, 48 h or 72 h, read-out: inhibition ratio CRL-2233SNU-398
Experimental: as §4

HTB-95637 = assay: In vitro anticancer MTT experiment; conditions: concentration 5 ug/ml, 48 h or 72 h, read-out: inhibition ratio HTB-95637
Experimental: as §4

L1210 = assay: In vitro anticancer MTT experiment; conditions: Mus musculus, concentration 5 ug/ml, 48 h or 72 h, read-out: inhibition ratio L1210
Experimental: as §4

FTC 133 = assay: In vitro anticancer MTT experiment; conditions: Homo sapiens, concentration 5 ug/ml, 48 h or 72 h, read-out: inhibition ratio FTC 133
Experimental: as §4

B01092 = assay: In vitro anticancer MTT experiment; conditions: concentration 5 ug/ml, 48 h or 72 h, read-out: inhibition ratio B01092
Experimental: as §4

L428 = assay: In vitro anticancer MTT experiment; conditions: Homo sapiens, L-428, concentration 5 ug/ml, 48 h or 72 h, read-out: inhibition ratio L428
Experimental: as §4

HTB-131MDA-MB-453 = assay: In vitro anticancer MTT experiment; conditions: concentration 5 ug/ml, 48 h or 72 h, read-out: inhibition ratio HTB-131MDA-MB-453
Experimental: as §4

CRL-1435PC-3 = assay: In vitro anticancer MTT experiment; conditions: concentration 5 ug/ml, 48 h or 72 h, read-out: inhibition ratio CRL-1435PC-3
Experimental: as §4

HTB-38HT-29 = assay: In vitro anticancer MTT experiment; conditions: concentration 5 ug/ml, 48 h or 72 h, read-out: inhibition ratio HTB-38HT-29
Experimental: as §4

A375 = assay: In vitro anticancer MTT experiment; conditions: Homo sapiens, A-375, concentration 5 ug/ml, 48 h or 72 h, read-out: inhibition ratio A375
Experimental: as §4

AS24391 = assay: In vitro anticancer MTT experiment; conditions: concentration 5 ug/ml, 48 h or 72 h, read-out: inhibition ratio AS24391
Experimental: as §4

[1] = system: Fusarium oxysporum vasinfectum; assay: In vitro antibacterial (antifungal) test, two-fold dilution MIC; conditions: RPMI 1640, culture 2-7 days
Experimental: as §1, §2, §3

Setosphaeria turcica = assay: as above; conditions: Exserohilum turcicum, RPMI 1640, culture 2-7 days
Experimental: as §1, §2, §3

M. gypseum = assay: as above; conditions: Nannizzia gypsea, RPMI 1640, culture 2-7 days
Experimental: as §1, §2, §3

Terchoderma = assay: as above; conditions: Trichoderma, RPMI 1640, culture 2-7 days
Experimental: as §1, §2, §3

E. floccosum = assay: as above; conditions: Epidermophyton floccosum, RPMI 1640, culture 2-7 days
Experimental: as §1, §2, §3

CRL-1469PANC-1 = assay: In vitro anticancer MTT experiment; conditions: concentration 5 ug/ml, 48 h or 72 h, read-out: inhibition ratio CRL-1469PANC-1
Experimental: as §4

SGC7901 = assay: In vitro anticancer MTT experiment; conditions: Homo sapiens, SGC-7901, concentration 5 ug/ml, 48 h or 72 h, read-out: inhibition ratio SGC7901
Experimental: as §4

| Compound | MIC (C. Krusei) | MIC (C. parapsilosis) | MIC (C. tropicalis) | MIC (C. albicans) | MIC (C. glabrata) | MIC (S. schenekn) | MIC (C. neoformans) | inhibition at 5 µg/mL (HTB-94) | inhibition at 5 µg/mL (HTB-95637) | inhibition at 5 µg/mL (L1210) | inhibition at 5 µg/mL (FTC 133) | inhibition at 5 µg/mL (B01092) | inhibition at 5 µg/mL (L428) | inhibition at 5 µg/mL (CRL-1435PC-3) | inhibition at 5 µg/mL (HTB-38HT-29) | inhibition at 5 µg/mL (A375) | inhibition at 5 µg/mL (AS24391) | MIC (Setosphaeria turcica) | MIC (M. gypseum) | MIC (E. floccosum) | also measured |
| --- | --- | --- | --- | --- | --- | --- | --- | --- | --- | --- | --- | --- | --- | --- | --- | --- | --- | --- | --- | --- | --- |
| O=C1/C(=C\O)CSc2ccc(F)cc21 [Compound 3, 6-fluorine-3-(hydroxylmethene)thiochroman-4-one] | 32 µg/mL (≈ 152 µM) | 32 µg/mL (≈ 152 µM) | 32 µg/mL (≈ 152 µM) | 32 µg/mL (≈ 152 µM) | 64 µg/mL (≈ 304 µM) | 64 µg/mL (≈ 304 µM) | 16 µg/mL (≈ 76.1 µM) |  |  |  |  |  |  |  |  |  |  |  |  |  |  |
| O=C1/C(=C/Cl)CSc2ccc(F)cc21 [Compound 7, (Z)-3-(chloromethylene)-6-fluorothiochroman-4-one] | 16 µg/mL (≈ 70 µM) | 8 µg/mL (≈ 35 µM) | 16 µg/mL (≈ 70 µM) | 4 µg/mL (≈ 17.5 µM) | 16 µg/mL (≈ 70 µM) | 2 µg/mL (≈ 8.75 µM) | 16 µg/mL (≈ 70 µM) | 65.4% | 60.1% | 79.8% | 52.6% | 54.8% | 57.3% | 51.2% | 45.7% | 56% | 58.3% | 16 µg/mL (≈ 70 µM) | 8 µg/mL (≈ 35 µM) | 4 µg/mL (≈ 17.5 µM) | inhibition at 5 µg/mL (CRL-2233SNU-398): 49.9%; inhibition at 5 µg/mL (HTB-131MDA-MB-453): 48.6%; MIC [1]: 32 µg/mL (≈ 140 µM); MIC (Terchoderma): 8 µg/mL (≈ 35 µM) |
| Cc1ccc(S/C=C2\CSc3ccc(F)cc3C2=O)cc1F [Compound 12, (Z)-6-fluoro-3-(((3-fluoro-4-methylphenyl)thio)methylene)thiochroman-4-one] | 64 µg/mL (≈ 191 µM) |  |  |  |  | 64 µg/mL (≈ 191 µM) | 8 µg/mL (≈ 23.9 µM) | 47.5% | 60.5% | 90.9% | 54.5% | 48.4% | 56.8% | 56.6% | 43.2% | 60.4% | 49% |  |  |  | inhibition at 5 µg/mL (CRL-1469PANC-1): 45.6%; MIC [1]: 16 µg/mL (≈ 47.8 µM) |
| O=C1/C(=C/Cl)SCc2ccccc21 [Compound 14, (Z)-3-(chloromethylene)isothiochroman-4-one] | 64 µg/mL (≈ 304 µM) | 32 µg/mL (≈ 152 µM) | 32 µg/mL (≈ 152 µM) | 4 µg/mL (≈ 19 µM) | 16 µg/mL (≈ 75.9 µM) | 8 µg/mL (≈ 38 µM) | 4 µg/mL (≈ 19 µM) | 45.6% | 40.5% | 78% | 30.4% | 56.8% | 34.6% | 48% | 42.6% | 45.5% | 36.6% |  | 4 µg/mL (≈ 19 µM) | 16 µg/mL (≈ 75.9 µM) | inhibition at 5 µg/mL (CRL-2233SNU-398): 58.9%; inhibition at 5 µg/mL (CRL-1469PANC-1): 40.6%; inhibition at 5 µg/mL (HTB-131MDA-MB-453): 56.7%; inhibition at 5 µg/mL (SGC7901): 50.6% |
| Cc1ccc2c(c1)C(O)/C(=C/Cl)CS2 (centres unmarked) [Compound 17, (Z)-3-(chloromethylene)-6-methylthiochroman-4-ol] | 16 µg/mL (≈ 70.6 µM) | 16 µg/mL (≈ 70.6 µM) | 4 µg/mL (≈ 17.6 µM) | 16 µg/mL (≈ 70.6 µM) | 32 µg/mL (≈ 141 µM) | 32 µg/mL (≈ 141 µM) | 16 µg/mL (≈ 70.6 µM) |  |  |  |  |  |  |  |  |  |  | 16 µg/mL (≈ 70.6 µM) | 4 µg/mL (≈ 17.6 µM) | 16 µg/mL (≈ 70.6 µM) | MIC (Terchoderma): 32 µg/mL (≈ 141 µM) |
| Cc1ccc2c(c1)C(O)/C(=C\Cl)CS2 (centres unmarked) [Compound 25, (E)-3-(chloromethylene)-6-methylthiochroman-4-ol] | 16 µg/mL (≈ 70.6 µM) | 16 µg/mL (≈ 70.6 µM) |  | 4 µg/mL (≈ 17.6 µM) | 8 µg/mL (≈ 35.3 µM) | 8 µg/mL (≈ 35.3 µM) | 16 µg/mL (≈ 70.6 µM) |  |  |  |  |  |  |  |  |  |  | 16 µg/mL (≈ 70.6 µM) | 16 µg/mL (≈ 70.6 µM) | 32 µg/mL (≈ 141 µM) |  |
| O=C1/C(=C\Cl)CSc2ncccc21 [Compound 27, (E)-3-(chloromethylene)-2H-thiopyrano[2,3-b]pyridin-4(3H)-one] | 8 µg/mL (≈ 37.8 µM) | 4 µg/mL (≈ 18.9 µM) | 4 µg/mL (≈ 18.9 µM) | 4 µg/mL (≈ 18.9 µM) | 16 µg/mL (≈ 75.6 µM) | 2 µg/mL (≈ 9.45 µM) | 8 µg/mL (≈ 37.8 µM) |  |  |  |  |  |  |  |  |  |  | 32 µg/mL (≈ 151 µM) | 8 µg/mL (≈ 37.8 µM) | 16 µg/mL (≈ 75.6 µM) | MIC [1]: 16 µg/mL (≈ 75.6 µM); MIC (Terchoderma): 4 µg/mL (≈ 18.9 µM) |

From patent publication US20120035206A1, “PREPARATION AND APPLICATION OF NOVEL ANTIBACTERIAL AND ANTICANCER COMPOUNDS AND THEIR DERIVATIVES” (priority 2009, published 2012)
